Earlier results on 1 compound are cited in patent US20090029952A1, “UNIQUE COMBINATION OF […] ACID, ETHYLENEDIAMINE DIHYDROIODIDE (EDDI), AND BUFFER FOR USE IN ANIMAL DRINKING WATER” (priority 2007, published 2009).

As to `CC(=O)Oc1ccccc1C(=O)O` [aspirin, acetylsalicylic acid], the “maximum solubility of aspirin alone in water” value (alone in water, or in the presence of sodium acetate or sodium diacetate) is 0.1 % by weight. For the same compound, the solubility in water (water, from chemical handbooks) is 0.1%.
